Where two headings read alike, the source gives them in different places.
Test system: RPMI8226 multiple myeloma (MM) human cell lines
Assay: Cytotoxic effect of CBD, THC and combinations on RPMI8226 cells
Type: cell-based
Conditions: for IC50: Homo sapiens; for survival of MM cells (in words): concentration dependent manner, FIG. 2; for survival of RPMIS MM cells: concentration of about 20 μM and higher
Method: This example examines the cytotoxic effect of CBD alone, THC alone and combinations of both compounds. The cytotoxic effect of CBD, THC and their combinations in different ratios such as CBD: THC 1:1; CBD: THC 5:1 and CBD: THC 1:5 were evaluated on RPMI8226 multiple myeloma (MM) human cell lines. Reference is now made to FIG. 2 which presents a graph of RPMIS MM cell line survival (%) vs. concentration (μM).

CCCCCc1cc(O)c2c(c1)OC(C)(C)[C@@H]1CCC(C)=C[C@@H]21 [THC, Tetrahydrocannabinol]
IC50 (RPMI-8226, read-out: dose that caused 50% of MM cell death): 22 µM | survival of MM cells (in words): decreased the survival | survival of RPMIS MM cells: about 50%

C=C(C)[C@@H]1CCC(C)=C[C@H]1c1c(O)cc(CCCCC)cc1O [CBD, cannabidiol]
IC50 (RPMI-8226, RPMI8226 (RPMIS) MM cells, read-out: dose that caused 50% of MM cell death): 16 µM | survival of MM cells (in words): decreased the survival | survival of RPMIS MM cells: about 50%

From patent publication US20180185324A1, “NOVEL CANNABINOID COMBINATION THERAPIES FOR MULTIPLE MYELOMA (MM)” (ONE WORLD CANNABIS LTD, priority 2015, published 2018)
